# Measured values reported in PubChem BioAssay (NCI).
# Where “and” joins values, the source holds several entries; their conditions need not be identical. Equal entries are not always repeated.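 Five concentrations, 48 hours, 96-well plates. Abbreviation: GI50, concentration required for 50% inhibition of growth. TGI denotes the concentration required for complete inhibition of growth.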 Where a SMILES comes first, the peptide text is derived from it. [ ]: non-standard residue; d: D form. The star is where a group is joined. Phe(4-NO2) = N[CH](Cc1ccc([N+](=O)[O-])cc1)C(=O)O; Boc = CC(C)(C)OC(=O)*
# Tests used:
# Assay in all cases: growth of human tumour cells (NCI), 48 h
# [1] = system: 786-0 renal
# [2] = system: HOP-92 NSCLC
# [3] = system: IGROV1 ovarian
# [4] = system: MDA-MB-435
# [5] = system: SF-295 CNS
# [6] = system: SK-MEL-5 melanoma
# [7] = system: SN12C renal
# [8] = system: T-47D breast
# [9] = system: HS 578T breast
Compound,TGI [1] [µM],GI50 [2] [µM],TGI [2],TGI [3] [µM],GI50 [4] [µM],GI50 [5] [µM],TGI [5] [µM],TGI [6] [µM],TGI [7] [µM],TGI [8] [µM],TGI [9] [µM],TGI [4] [µM],GI50 [9] [µM],GI50 [3] [µM],GI50 [6] [µM],GI50 [7] [µM],GI50 [8] [µM]
O=C1C(N2CCN(CCOCCO)CC2)=C(Cl)C(=O)c2ncccc21,36,16.7,6.27 µM and 31.4 µM,31.4,18.5,> 100,> 100,30.6,35.3,6.75,,,,,,,
O=C1N2CCC[C@H]2CS1(=O)=O,23.1,,25.7 µM,34.7,,,> 100,33.3,29.1,32.9,> 100,36.7,,,,,
Cc1c(OCc2cccc3ccccc23)ccc2c(=O)cc(SCCN3CCOCC3)oc12,> 100,,> 100 µM,> 100,,,> 100,> 100,> 100,> 100,> 100,> 100,,,,,
O=c1[nH]cc(N=Cc2cc(Cl)ccc2O)c(=O)[nH]1,70.6,,89.8 µM,52.6,,,42.1,> 100,> 100,60.7,> 100,> 100,,,,,
O=c1cc(-c2ccccc2)oc2c1ccc1[nH]c3ccccc3c(=O)c12,> 100,,> 100 µM,> 100,,,> 100,> 100,> 100,> 100,> 100,> 100,,,,,
O=c1c2ccccc2nc(N/N=C/c2ccc([N+](=O)[O-])cc2)n1-c1ccccc1,20.1,,,> 100,,,62.2,> 100,> 100,> 100,68.1,> 100,,,,,
CC(OP(=O)(O)O)C(N)C(=O)O (stereo unspecified),> 100,,> 100 µM,> 100,,,> 100,> 100,> 100,> 100,> 100,> 100,,,,,
O=C1c2ccccc2C2(c3ccc(F)cc3)NCCN12 (stereo unspecified),> 100,,,> 100,,,> 100,> 100,> 100,> 100,> 100,> 100,,,,,
O=C1C=C(N2CCN(c3ncccn3)CC2)C(=O)c2c(O)ccc(O)c21,> 100,,> 100 µM,> 100,,,> 100,> 100,> 100,> 100,> 100,24.3,,,,,
Cc1cc(C)c2c(c1)C/C(=C\c1cccc(C)c1C(=O)O)C2=O,> 100,,> 100 µM,> 100,,,> 100,> 100,> 100,> 100,,,,,,,
Cc1cc(C)nc(NS(=O)(=O)c2ccc(NNc3c4ccccc4nc4c(C(=O)Nc5ccc(S(=O)(=O)Nc6cc(C)on6)cc5)cccc34)cc2)n1,> 100,,> 100 µM,> 100,,,> 100,> 100,> 100,> 100,> 100,> 100,,,,,
O=C(Nc1ccc(-n2cc(-c3ccncc3)c(-c3ccc(O)c(Cl)c3)n2)cc1)c1ccc(Cl)c(C(F)(F)F)c1,,1.07,4.55 µM,> 50,2.06,1.35,4.15,5.67,> 50,37.2,3.1,39.4,0.702,15.6,1.46,2.57,3.43
COC(=O)c1c2c(cc3c1CC1(Cc4cc5c(c(C)c4C1)CCC5)C3)CCC2 (stereo unspecified),> 100,,> 100 µM,> 100,,,> 100,> 100,,> 100,> 100,> 100,,,,,
CCOC(=O)CCC(NC(=O)C(Cc1ccc([N+](=O)[O-])cc1)NC(=O)OC(C)(C)C)C(=O)NC(CCC(=O)OCC)C(=O)OCC (stereo unspecified) (Boc-[Phe(4-NO2)]-Glu(OEt)-Glu(OEt)-OEt; configuration not given here),30.5,,34.7 µM,38.3,,,,31.2,49.7,,53.1,,,,,,
Cc1nc(C)c(N2CCN(CN)CC2)c(=O)[nH]1,> 100,,> 100 µM,> 100,,,> 100,> 100,> 100,> 100,> 100,> 100,,,,,
Oc1ccc2ccccc2c1OCc1nnc(CCCCCCCCc2nnc(COc3c(O)ccc4ccccc34)n2Nc2ccccc2)n1Nc1ccccc1,58.7,,61.5 µM,> 81.8,,,> 100,2.37,> 100,> 100,65.2,31.8,,,,,
CC(C)(C)c1cc(OCc2nnc3sc(Cc4ccccc4)nn23)c(Cl)cc1OCc1nnc2sc(Cc3ccccc3)nn12,46.7,,35.4 µM,52.4,,,> 100,31.7,> 100,38.5,> 100,82.9,,,,,
O=C1CCCCC/C1=C\c1cccc(F)c1,> 100,,,> 100,,,> 100,> 100,> 100,> 100,,> 100,,,,,
Cc1ccc(-n2nncc2[Si](C)(C)C)s1,> 100,,> 100 µM,,,,> 100,> 100,> 100,> 100,> 100,> 100,,,,,
CC(c1ccccc1)n1cncc1C(=O)NN1CCN(C)CC1 (stereo unspecified),> 10,,,> 10,,,> 10,> 10,> 10,> 10,> 10,> 10,,,,,
O=[N+]([O-])c1ccc(N2N=C(c3c(O)ccc4ccccc34)CC2c2ccc(Cl)cc2)c([N+](=O)[O-])c1 (stereo unspecified),> 100,,> 100 µM,> 100,,,39.1,39.1,> 100,> 100,> 100,> 100,,,,,
COc1cccc2c1OC1c3ccccc3OCC1(O)C2 (stereo unspecified),> 100,,> 100 µM,> 100,,,> 100,> 100,> 100,> 100,,> 100,,,,,
CCOc1ccc2nc3nc(=O)[nH]c(C)c3c(NC(C)(CO)CO)c2c1,> 100,,> 100 µM,> 100,,,> 100,> 100,> 100,> 100,> 100,> 100,,,,,
N/N=C(/N)SCCCCCCCCCCS/C(N)=N/N,> 100,,,69.9,,,60.9,49,> 100,35.4,> 100,> 100,,,,,

Compound,TGI [1] [µM],GI50 [2] [µM],TGI [2],TGI [3] [µM],GI50 [4] [µM],GI50 [5] [µM],TGI [5] [µM],TGI [6] [µM],TGI [7] [µM],TGI [8] [µM],TGI [9] [µM],TGI [4] [µM],GI50 [9] [µM],GI50 [3] [µM],GI50 [6] [µM],GI50 [7] [µM],GI50 [8] [µM]
CC(=O)OCC1OC(SC2=NC(=O)CS2)C(OC(C)=O)C(OC(C)=O)C1OC(C)=O (stereo unspecified),> 100,,,> 100,,,> 100,> 100,> 100,> 100,> 100,> 100,,,,,
COc1ccc(OC)c2c(C)ccnc12,> 100,,90.8 µM,> 66.4,,,95.3,> 84.4,> 100,> 100,,> 100,,,,,
O=C(O)Cn1c2c(c3c1-c1ccccc1C3=O)C(=O)CCC2,,20,> 100 µM,> 100,> 100,> 100,> 100,> 100,> 100,> 100,> 100,> 100,> 100,> 100,> 100,> 100,> 100
Oc1c(Cl)cc2cc1-c1cc(cc(Cl)c1O)CCc1c(cc(Cl)c(O)c1Cl)-c1cc(Cl)c(c(Cl)c1O)/C=C\2,16.6,,34.7 µM,18.3,,,,14.9,,19.2,33.7,21.7,,,,,
CC(=O)/C=C/c1ccccc1,49.1,,,64.9,,,> 100,61.2,> 100,> 100,> 100,68.3,,,,,
COc1c(C)c(C/C=C(\C)CCCC(C)CCCC(C)CCCC(C)C)c(OC)c2ccccc12 (stereo unspecified),> 100,,> 100 µM,> 100,,,> 100,> 100,> 100,,> 100,> 100,,,,,
COc1ccc(/C=C2\CCCc3ccccc3C2=O)cc1,12.2,,88.1 µM,> 100,,,,16,16.9,,37.1,53.1,,,,,
COC(=O)/C=C\n1nc(Br)c(=O)[nH]c1=O,,,> 100 µM,> 100,,,,> 100,> 100,> 100,> 100,> 100,,,,,
CCOC(=O)CCc1cn2cc(Br)nc(OC)c2n1,> 100,,,> 100,,,> 100,> 100,> 100,> 100,> 100,26,,,,,
c1ccc2c[n+](CCCC[n+]3ccc4ccccc4c3)ccc2c1,> 100,,,> 100,,,> 100,> 100,> 100,> 100,,> 100,,,,,
Cc1cn(C2CC(COCc3ccccc3)N(CCO[Si](C)(C)C(C)(C)C)O2)c(=O)[nH]c1=O (stereo unspecified),> 100,,25.7 µM,,,,29.9,12.9,25.1,31.1,,34.9,,,,,
Cc1cc2nc3ccccc3n2c2ccccc12,> 10,,,> 10,,,> 10,> 10,> 10,> 10,> 10,> 10,,,,,
Cc1nc2ccc(Br)cc2c(=O)n1-c1ccc(N)cc1,> 100,,> 100 µM,> 100,,,> 100,> 100,> 100,,> 100,> 100,,,,,
C/C(=N\Nc1nc2ccccc2[nH]1)c1ncccn1,> 100,,1.93 µM,9.41,,,> 100,1.34,0.991,> 100,> 100,,,,,,
O=c1[nH]nc(-c2ccccc2)c2[nH]c3c(c12)Cc1ccccc1-3,> 100,,9.68 µM,> 100,,,> 100,,> 100,> 100,> 100,37.3,,,,,
Cc1ccc(S(=O)(=O)OCCC2CN(C(=O)OCc3ccccc3)C(C)(C)O2)cc1 (stereo unspecified),> 100,,> 100 µM,> 100,,,> 100,8.76,> 100,,,22.5,,,,,
CC(C)[C@H](C)/C=C/[C@@H](C)C1CC[C@H]2[C@@]34C=C[C@]5(C[C@@H](O)CC[C@]5(C)[C@H]3CC[C@]12C)OO4 (stereo partly specified),47.7,,92.3 µM,> 100,,,> 100,62.2,79.7,> 100,,91.6,,,,,
COC(=O)C1C(=O)CC(C)(O)C(C(=O)OC)C1c1ccc(N(C)C)cc1 (stereo unspecified),24.7,,> 100 µM,> 100,,,> 100,> 100,> 100,> 100,,> 100,,,,,
O=c1[nH]n(CCc2ccccc2CCl)c2ccc([N+](=O)[O-])cc12,> 100,,> 100 µM,> 100,,,> 100,> 100,> 100,,> 100,> 100,,,,,
C/C(=C\Cc1ccc(F)cc1)CCCCCC/C(C)=C/Cc1ccc(F)cc1,21.9,,23.5 µM,26.7,,,24.6,27.8,31.5,,78.1,39,,,,,
Cn1c2ccccc2n2c3ncccc3c(=O)cc12,> 100,,> 100 µM,> 100,,,> 100,> 100,> 100,> 100,,> 100,,,,,
Cc1cc(S(=O)(=O)Nc2nc3cscc3c(=O)n2N)c(S)cc1Cl,> 100,,,> 100,,,> 100,> 100,> 100,,,> 100,,,,,
CC(C)(C)OC(=O)C(C#N)C(=O)c1ccc(C(=O)O)[nH]1 (stereo unspecified),> 100,,73.6 µM,,,,> 100,> 100,> 100,> 100,,> 100,,,,,
CC(C)OP(=O)(OC(C)C)C(C(C)C)N(C)C(N)=NC#N (stereo unspecified),,,> 100 µM,> 100,,,> 100,> 100,> 100,> 100,> 100,> 100,,,,,
